As a reminder, the pKa is the negative logarithm of the acid dissociation constant. A low value points to a group that gives up its proton readily.

The nature of data set [1]: Maximum carbon dioxide (CO2) release temperature of amine compound (DSC). It is filed as physicochemical. The note with it: amine left in air at 23° C., 50% RH for 24 hours; DSC 23 to 250° C., 10° C./minute, nitrogen. The method, then: The amine compound (a1) with carbon dioxide absorbed is heated at a heating rate of 10° C./minute from 23° C. to 250° C., and the temperature at which the amount of heat absorbed due to desorption of carbon dioxide reaches the maximum is measured, and the temperature is defined as the maximum carbon dioxide release temperature. In this regard the amine compound (a1) with carbon dioxide absorbed may be prepared by leaving 5 mmol of the amine compound (a1) to stand in air at 23° C. and 50% RH for 24 hours.
A carbon dioxide detector and a Petri dish were placed in an openable desiccator (inner dimension: 370 mm×260 mm×272 mm). Subsequently the amine compound (5 mmol) was added to the Petri dish in the desiccator and the door was immediately closed to leave the amine compound to stand in the desiccator in an air environment at 23° C. and 50% RH for 24 hours. The initial concentration of carbon dioxide was adjusted to about 400 ppm.
(§1) Then the amine compound was removed from the desiccator to give an amine compound with carbon dioxide absorbed. The maximum carbon dioxide release temperature of the amine compound with carbon dioxide absorbed was measured by subjecting the amine compound to DSC as described below. First, differential scanning calorimetry of the amine compound was performed under conditions of a temperature range of 23 to 250° C., a heating rate of 10° C./minute and a nitrogen atmosphere using a differential thermogravimeter (product name DTG-60 made by Shimadzu Corporation). The temperature at which the amount of heat absorbed due to the desorption of carbon dioxide was the maximum was calculated from the DSC curve obtained, and the temperature was determined as the maximum carbon dioxide release temperature of the amine compound.

Data set [2] is described as follows: Maximum endothermic temperature of amine compound (DSC). The following applies: DSC 23 to 350° C., 10° C./minute, nitrogen; evaporation of the amine compound. It is filed as physicochemical. The method, then:
The amine compound (a1) is heated at a heating rate of 10° C./minute from 23° C. to 350° C. and the temperature at which the amount of heat absorbed due to evaporation of the amine compound (a1) reaches the maximum is measured, and the temperature is defined as the maximum endothermic temperature of the amine compound (a1).
as §1, with “The” for “Then the amine compound was removed from the desiccator to give an amine compound with carbon dioxide absorbed. The”, “endothermic” for “carbon dioxide release”, “compound” for “compound with carbon dioxide absorbed”, “350°” for “250°”, “evaporation” for “desorption”, “the amine compound” for “carbon dioxide”

Data set [3] can be described thus: Amine value of amine compound (JIS K7237-1995 titration). It is filed as physicochemical. The note with it: 0.1 N perchloric acid-acetic acid titration.
Experimental: The amine value was measured by the following measurement method according to JIS K7237-1995. • (1) 0.1 g of the amine compound was dissolved in 20 mL of acetic acid. • (2) The amine value was calculated by titrating the solution prepared in (1) above with 0.1 N perchloric acid-acetic acid solution using an automatic potentiometric titrator (AT-610 made by Kyoto Electronics Manufacturing Co., Ltd.) (Acid Dissociation Constant (pKa) of Amine Compound)
Data set [4] can be described thus: Absorption of carbon dioxide into amine compound: percentage increase of mass. It is filed as physicochemical. The following applies: amine left to stand in air at 23° C. and 50% RH for a week. On the procedure:
An amine compound, MXDA (40 mmol), was put in a container and left to stand in an air environment at 23° C. and 50% RH for a week. By doing so MXDA and carbon dioxide in the air were reacted to give a carbonate of MXDA. At that stage, to suppress uneven reaction, the container in which the amine compound was placed was shaken as necessary so as not to leave unreacted MXDA.
Next, increase of the mass of MXDA was measured and the percentage increase of the mass of the amine compound was calculated by the following equation.
Percentage increase of mass of amine compound [% by mass]=100×amount of increase of mass of amine compound (g)/(initial mass of amine compound (g)+amount of increase of mass of amine compound (g))

The nature of data set [5]: Acid dissociation constant (pKa) of amine compound, acid-base titration. The note with it: purified water.
Experimental: (§2) The acid dissociation constant of the amine compound (a1) is measured by the following measurement method based on acid-base titration. • (1) 0.2 g of the amine compound (a1) is dissolved in 30 mL of purified water. • (2) The acid dissociation constant (pKa) is calculated by titrating the solution prepared in (1) above with 0.1 N perchloric acid-acetic acid solution using an automatic potentiometric titrator (e.g., AT-610 made by Kyoto Electronics Manufacturing Co., Ltd.).
(§3) The acid dissociation constant of the amine compound was measured by the following measurement method. • (1) 0.2 g of the amine compound was dissolved in 30 mL of purified water. • (2) The acid dissociation constant (pKa) was calculated by titrating the solution prepared in (1) above with 0.1 N perchloric acid-acetic acid solution using an automatic potentiometric titrator (AT-610 made by Kyoto Electronics Manufacturing Co., Ltd.).
(§4) The temperature in the measurement was 25±2° C.

Experimental for physchem: as §2, §3, §4

In the case of `NCC1CCCC(CN)C1` (centres unmarked) [1,3-BAC, 1,3-bis(aminomethyl)cyclohexane], the “Maximum CO2 release temperature” value in data set [1] came out at 125.7 °C. In data set [2], this molecule returned a Maximum endothermic temperature of 160.9 °C. This molecule yielded an Amine value in data set [3] of 789 mg KOH/g. The “Percentage increase of mass” value in data set [4] stood at 25.9 % by mass.

Regarding `NCCN1CCNCC1` [AEP, N-(2-aminoethyl)piperazine], in data set [1], the “Maximum CO2 release temperature” value amounted to 81.9 °C. Further, the Maximum endothermic temperature in data set [2] is 140.2 °C. This molecule also returned an Amine value in data set [3] of 1303 mg KOH/g. Further, in data set [4], the “Percentage increase of mass” value is on record as 43.7 % by mass. This molecule gave a pKa in data set [5] of 8.9.

For the molecule `CC1(C)CC(N)CC(C)(CN)C1` (centres unmarked) [IPDA, isophoronediamine], in data set [1], the “Maximum CO2 release temperature” value was found to be 114.4 °C. This molecule came in with a Maximum endothermic temperature in data set [2] of 168.8 °C. In data set [3], the Amine value was 659 mg KOH/g. For the same molecule, the “Percentage increase of mass” value in data set [4] is given as 23.5 % by mass. The molecule also had a pKa in data set [5] of 10.4.

Consider `NCc1cccc(CN)c1` [MXDA, metaxylylenediamine], for which, in data set [1], the “Maximum CO2 release temperature” value is 135.5 °C. The molecule also yielded a Maximum endothermic temperature in data set [2] of 183.5 °C. This molecule also came in with an Amine value in data set [3] of 824 mg KOH/g. In data set [4], the “Percentage increase of mass” value is on record as 24.1 % by mass.

Consider `NC1CCC(CC2CCC(N)CC2)CC1` (centres unmarked) [PACM, 4,4′-methylenebis(cyclohexylamine)], for which, in data set [1], the “Maximum CO2 release temperature” value worked out at 53.0 °C. In addition, the Maximum endothermic temperature in data set [2] came out at 218.5 °C. For the same molecule, in data set [3], the Amine value was 533 mg KOH/g. Besides, the “Percentage increase of mass” value in data set [4] turned out to be 12.2 % by mass. In the data set “physchem”, this molecule yielded a pKa of 10.3.

Values taken from patent US20240301156A1, “FOAMABLE RESIN COMPOSITION, FOAM BODY, METHOD FOR PRODUCING FOAM BODY, AND FOAMABLE CURING AGENT” (MITSUBISHI GAS CHEMICAL COMPANY, INC., priority 2021, published 2024).
